{"source": "ChEMBL document CHEMBL1150799", "about": "“Vancomycin in vitro bactericidal activity and its relationship to efficacy in clearance of methicillin-resistant Staphylococcus aureus bacteremia” (2007)", "tested_on": "Staphylococcus aureus", "assay": "Antibacterial activity against methicillin-resistant Staphylococcus aureus assessed as bacterial killing at 16 ug/ml by serial dilution method after 24 hrs", "type": "functional", "data": [{"molecule": "CN[C@H](CC(C)C)C(=O)N[C@H]1C(=O)N[C@@H](CC(N)=O)C(=O)N[C@H]2C(=O)N[C@H]3C(=O)N[C@H](C(=O)N[C@H](C(=O)O)c4cc(O)cc(O)c4-c4cc3ccc4O)[C@H](O)c3ccc(c(Cl)c3)Oc3cc2cc(c3O[C@@H]2O[C@H](CO)[C@@H](O)[C@H](O)[C@H]2O[C@H]2C[C@](C)(N)[C@H](O)[C@H](C)O2)Oc2ccc(cc2Cl)[C@H]1O", "note": "[VANCOMYCIN]", "values": [{"measurement": "log10CFU/ml", "value": 0.82}]}]}
